Measurements: ChEMBL document CHEMBL4699652, “Proline Hinged Amphipathic α-Helical Peptide Sensitizes Gram-Negative Bacteria to Various Gram-Positive Antibiotics” (J Med Chem, 2020)
The source made the active and inactive calls. The calls are words filed in the database; no cut-off is given here.

Tests used:
[1] = tested on: Acinetobacter baumannii; test: Sensitization of rifampicin-induced antimicrobial activity against Acinetobacter baumannii OXA infected in mouse skin infection model assessed as reduction in skin ulcer at 7.5 mg/kg, sc TID for 5 days co-treated with 20 ug/kg, sc rifampicin; assay type: functional, organism-based; conditions: time 5.0 day
[2] = tested on: Escherichia coli; test: Antimicrobial activity against Escherichia coli ATCC 25922 assessed as inhibition of bacterial growth incubated for 18 hrs by CLSI based method; assay type: functional
[3] = tested on: Staphylococcus aureus; test: Antimicrobial activity against Staphylococcus aureus ATCC 29213 assessed as inhibition of bacterial growth incubated for 18 hrs by CLSI based method; assay type: functional
[4] = tested on: Erythrocyte; test: Hemolytic activity in human red blood cells assessed as induction of hemoglobin release incubated for 4 hrs by microplate reader based assay; assay type: cell-based
[5] = tested on: Escherichia coli; test: Sensitization of rifampicin-induced antimicrobial activity against Cst-resistant Escherichia coli isolates assessed as inhibition of bacterial growth at 8 ug/ml incubated for 18 hrs by CLSI based method; assay type: functional, organism-based; conditions: dose 8.0 µg/ml
[6] = tested on: Escherichia coli; test: Sensitization of clarithromycin-induced antimicrobial activity against Cst-resistant Escherichia coli isolates assessed as inhibition of bacterial growth at 8 ug/ml incubated for 18 hrs by CLSI based method; assay type: functional, organism-based; conditions: dose 8.0 µg/ml
[7] = tested on: Staphylococcus aureus; test: Sensitization of rifampicin-induced antimicrobial activity against methicillin-resistant Staphylococcus aureus assessed as inhibition of bacterial growth at 8 ug/ml incubated for 18 hrs by CLSI based method; assay type: functional, organism-based; conditions: dose 8.0 µg/ml
[8] = Drug uptake in human HeLa cells at 1 uM incubated for 4 hrs using TAMRA-labeled compound; assay type: ADME, cell-based
[9] = Drug uptake in Escherichia coli at 1 uM incubated for 4 hrs using TAMRA-labeled compound; assay type: ADME
[10] = Drug localization in membrane of Escherichia coli at 1 uM incubated for 4 hrs using TAMRA-labeled compound; assay type: ADME, cell membranes, Cell membrane
[11] = Drug localization in cytosol of Escherichia coli at 1 uM incubated for 4 hrs using TAMRA-labeled compound; assay type: ADME, subcellular
[12] = tested on: Escherichia coli; test: Induction of cell lysis in Escherichia coli at 5 uM by transmission electron microscopy; assay type: functional, organism-based
[13] = tested on: Cell membrane; test: Induction of outer membrane permeability in Escherichia coli assessed as periplasmic-beta-lactamase release at 5 uM using CENTA; assay type: subcellular
[14] = Induction of cell membrane permeability in POPE/POPG assessed as calcein leakage at 2 to 8 uM; conditions: dose microM 2-8
[15] = tested on: Cell membrane; test: Induction of inner membrane permeability in Escherichia coli at 5 uM incubated for 1 hr by SYTOX Green-staining based flow cytometry analysis; assay type: subcellular
[16] = tested on: Cell membrane; test: Induction of outer membrane re-arragenemnts in Escherichia coli ATCC 25922 incubated for 4 mins by NPN uptake assay; assay type: subcellular
[17] = tested on: Escherichia coli; test: Sensitization of rifampicin-induced induction of cell killing in Escherichia coli assessed as time needed for bacterial destruction at 8 ug/ml; assay type: functional; conditions: dose 8 µg/ml
[18] = tested on: Escherichia coli; test: Sensitization of linezolid-induced induction of cell killing in Escherichia coli assessed as time needed for bacterial destruction at 8 ug/ml; assay type: functional; conditions: dose 8 µg/ml
[19] = tested on: Cell membrane; test: Induction of membrane permeability in Escherichia coli assessed as increase in fine surface roughness at 25 uM by atomic force microscopy; assay type: subcellular
[20] = tested on: Lipopolysaccharide (LPS); test: Binding affinity to LPS in Escherichia coli D21 assessed as localization in membrane regions at 1 uM using TAMRA-labeled compound by confocal fluorescence microscopy
[21] = tested on: Lipopolysaccharide (LPS); test: Binding affinity to LPS in Escherichia coli D21e19 assessed as localization in membrane regions at 1 uM using TAMRA-labeled compound by confocal fluorescence microscopy
[22] = tested on: Lipopolysaccharide (LPS); test: Binding affinity to LPS in Escherichia coli D21f1 assessed as localization in membrane regions at 1 uM using TAMRA-labeled compound by confocal fluorescence microscopy
[23] = tested on: Lipopolysaccharide (LPS); test: Binding affinity to LPS in Escherichia coli D21f2 assessed as localization in membrane regions at 1 uM using TAMRA-labeled compound by confocal fluorescence microscopy
[24] = tested on: Lipopolysaccharide (LPS); test: Binding affinity to Escherichia coli LPS in POPE/POPG lipid layers containing wild-type LPS by SPR assay
[25] = tested on: Escherichia coli; test: Binding affinity to outer membrane in POPE/POPG lipid layers containing LPS by SPR assay
[26] = tested on: Escherichia coli; test: Binding affinity to cell membrane using POPC/cholesterol (8/2) by SPR assay
[27] = tested on: Cell membrane; test: Induction of cell membrane fluidity changes in Escherichia coli ATCC 25922 by Laurdan-dye based fluorescence assay; assay type: subcellular
[28] = tested on: Escherichia coli; test: Antimicrobial activity against Escherichia coli ATCC 25922 assessed as reduction in cell viability at 10 to 10000 uM by propidium iodide staining based assay; assay type: functional, organism-based; conditions: dose microM 10-10000
[29] = tested on: Escherichia coli; test: Sensitization of colistin-induced antimicrobial activity against NDM-1 producing carbapenem-resistant Escherichia coli infected in ICR CD1 mouse model of sepsis protection model assessed as increase in mouse survival at 12.5 mg/kg, sc QD for 1 days co-treated with 40 mg/kg, sc QD colistin; assay type: functional; conditions: time 1 day
[30] = tested on: Escherichia coli; test: Sensitization of rifampicin-induced antimicrobial activity against Escherichia coli ATCC 25922 infected in ICR CD1 mouse model of sepsis protection model assessed as increase in mouse survival at 30 mg/kg, ip q1h x 8 hrs for 7 days co-treated with 5 mg/kg, sc q4h x 8 hrs rifampicin; assay type: functional, organism-based; conditions: time 7.0 day
[31] = tested on: Escherichia coli; test: Sensitization of rifampicin-induced antimicrobial activity against Escherichia coli ATCC 25922 infected in ICR CD1 mouse model of sepsis protection model assessed as mouse survival at 30 mg/kg, ip q1h x 8 hrs for 1 days co-treated with 5 mg/kg, sc q4h x 8 hrs rifampicin; assay type: functional; conditions: ATCC 25922, 24 h, time 1 day
[32] = tested on: Escherichia coli; test: Sensitization of linezolid-induced antimicrobial activity against Escherichia coli ATCC 25922 infected in ICR CD1 mouse model of sepsis protection model assessed as mouse survival at 30 mg/kg, ip q1h x 8 hrs for 1 days co-treated with 25 mg/kg, sc q4h x 8 hrs linezolid; assay type: functional; conditions: ATCC 25922, 24 h, time 1 day
[33] = tested on: Escherichia coli; test: Sensitization of rifampicin-induced antimicrobial activity against Escherichia coli ATCC 25922 infected in ICR CD1 mouse neutropenic thigh infection model assessed as reduction in bacterial CFU at 240 mg/kg, ip q1h x 8 hrs co-treated with 20 mg/kg, sc q4h x 8 hrs rifampicin; assay type: functional, organism-based
[34] = tested on: Escherichia coli; test: Sensitization of linezolid-induced antimicrobial activity against Escherichia coli ATCC 25922 infected in ICR CD1 mouse neutropenic thigh infection model assessed as reduction in bacterial CFU at 150 mg/kg, ip q2h x 4 hrs co-treated with 150 mg/kg, sc q2h x 4 hrs linezolid; assay type: functional, organism-based
[35] = tested on: Acinetobacter baumannii; test: Sensitization of linezolid-induced antimicrobial activity against Acinetobacter baumannii OXA infected in mouse skin infection model assessed as reduction in skin ulcer at 7.5 mg/kg, sc TID for 5 days co-treated with 3.1 mg/kg, sc linezolid; assay type: functional, organism-based; conditions: time 5.0 day
[36] = tested on: Acinetobacter baumannii; test: Sensitization of clarithromycin-induced antimicrobial activity against Acinetobacter baumannii OXA infected in mouse skin infection model assessed as reduction in skin ulcer at 7.5 mg/kg, sc TID for 5 days co-treated with 20 ug/kg, sc clarithromycin; assay type: functional, organism-based; conditions: time 5.0 day

What does the source list for Ac-KLLKLLKKPLKLLK-NH2?
Activity [1]: Active; MIC [2]: > 80 µM; MIC [3]: > 80 µM; HC10 [4]: > 1280 µM; Activity [5]: Active; Activity [6]: Active; Activity [7]: Active; Drug uptake [8]: Not Active; Drug uptake [9]: Active; Drug uptake [10]: Active; Drug uptake [11]: Not Active; Activity [12]: inactive; Activity [13]: inactive; Activity [14]: inactive; Activity [15]: inactive; Activity [16]: Active; Time [17]: 8 h; Time [18]: 8 h; Activity [19]: Active; Activity [20]: Active; Activity [21]: Active; Activity [22]: Active; Activity [23]: Active; Activity [24]: Active; Activity [25]: inactive; Activity [26]: inactive; Activity [27]: Dose-dependent effect; Activity [28]: inactive; Activity [29]: 75%; Activity [30]: Active; survival at 30 mg/kg [31]: 90%; survival at 30 mg/kg [32]: 90%; Activity [33]: Active; Activity [34]: Active; Activity [35]: Active; Activity [36]: Active
